Laboratory results from patent publication US5565561A, “Natural substance cyclamenol and chemical derivatives” (Bayer Aktiengesellschaft, priority 1992, dated 1996).

Experiments:
infarcted cardiac tissue = assay: Reduction of the infarct size in the rat infarct model; type: in vivo, Wistar rats; settings: 1 mg/kg each before occlusion and before reperfusion, jugular vein infusion; average and standard deviation, 11 rats
Protocol: After a 5-minute post-operative recovery phase, the compound from Example 1 in a dose of 1 mg/kg dissolved in 100% DMSO or solvents was infused for 6 min into the catheterized jugular vein of the ventilated rats and the coronary artery was occluded for 30 min. At the 25 minute point of the occlusion, the second administration of the compound from Example 1 or solvent is carried out under the conditions described above. After the end of the infusion and occulsion phase, the ligature was opened and the heart was reperfused for 90 min.
For histological staining of the infarcted cardiac tissue, the heart was perfused ex vivo retrogressively with triphenyltetrazolium chloride (TTC, 1.5%) in 20 mM potassium phosphate buffer for 15 min and with 0.9% NaCl for 10 min at 37° C. and at a perfusion pressure of 100 mm Hg. The infarct sizes were calculated in percent by weight of infarcted to non-infarcted tissue and indicated in percent as average values and their standard deviations of 11 rats treated with the compound from Example 1 and of 11 treated with solvent.

[1] = system: Leucocyte adhesion in small venules; assay: Leucocyte adhesion in small venules of the hamster cheek pouch; type: in vivo; settings: Mesocricetus auratus, iv, adhesion caused by the preparation, read-out: dose from which leucocyte adhesion is significantly reduced
Excerpt: (§1) 3. Leucocyte adhesion in small venules was investigated in the hamster cheek pouch (preparation according to Duling, MVR 5, 423-429, 1973). An increased adhesion is caused by the preparatory preparation of the cheek pouch. […] The determination of the myeloperoxidase activity as a direct measure of the accumulation of neutrophilic leucocytes gives increases of around 80-100% compared to the control.

[2] = system: myeloperoxidase activity (accumulation of neutrophilic leucocytes); assay: LTB4-superfused hamster cheek pouch, myeloperoxidase activity as measure of accumulation of neutrophilic leucocytes; type: in vivo; settings: 1 mg/kg i.v.; cheek pouch superfused with LTB4 for 10 min
Excerpt: as §1

[3] = target: T1, Myeloperoxidase from human polymorphonuclear neutrophils (Homo sapiens, UniProt P05164); assay: Inhibition of myeloperoxidase activity (ortho-dianisidine/H2O2, absorbance at 490 nm); type: biochemical; settings: pH 6.0, 30° C.
T1 construct: The latter were isolated from fresh venous whole blood; endogenous in cells; host or cells: human polymorphonuclear neutrophils isolated from fresh venous whole blood; lysed with cetyltrimethylammonium bromide, 40,000 g supernatant
Protocol: Myeloperoxidase from human polymorphonuclear neutrophils was used for the measurements. The latter were isolated from fresh venous whole blood according to the method of D. English and B. R. Andersen, Journal of Immunological Methods 5, (1974) 249-252.
10^7 cells were lysed at 0° C. for 10 min using 1 ml of 0.5% cetyltrimethylammonium bromide in 50 mmol/l sodium phosphate buffer pH 6.0, frozen and directly thawed again. This process was repeated twice. The suspension was then centrifuged at 40,000 g for 10 min. The supernatant was diluted with 50 mmol/l sodium phosphate buffer pH 6.0 according to its myeloperoxidase activity and used for the tests.
To carry out the tests, 10 μl of test sample are added to a dimethyl sulphoxide-containing solution (max. v/v 30%) with 30 μl of the myeloperoxidase solution prepared as described above=1-2.5 μg of protein, in a microtitre plate (Greiner) with a smooth bottom. The reaction is started by addition of a test mixture consisting of 250 μl of 50 mmol/l sodium phosphate buffer pH 6.0, 10 μl of 0.5×10^-3 mmol/l H2 O2 and 10 μl of 2.5×10^-2 mol/l ortho-dianisidine in dimethyl sulphoxide. The increase in the absorbance is measured at 490 nm in an Elisa reader at 30° C. 6 measurements are carried out at an interval of 2 min and the increase in absorbance per minute is calculated. A control which instead of a test sample contains only the corresponding amount of dimethyl sulphoxide is prepared as the 100% value and then the inhibition by the sample is calculated. All measurements are carried out as a triplicate determination.

T1 sequence (P05164 279-745 limits assumed): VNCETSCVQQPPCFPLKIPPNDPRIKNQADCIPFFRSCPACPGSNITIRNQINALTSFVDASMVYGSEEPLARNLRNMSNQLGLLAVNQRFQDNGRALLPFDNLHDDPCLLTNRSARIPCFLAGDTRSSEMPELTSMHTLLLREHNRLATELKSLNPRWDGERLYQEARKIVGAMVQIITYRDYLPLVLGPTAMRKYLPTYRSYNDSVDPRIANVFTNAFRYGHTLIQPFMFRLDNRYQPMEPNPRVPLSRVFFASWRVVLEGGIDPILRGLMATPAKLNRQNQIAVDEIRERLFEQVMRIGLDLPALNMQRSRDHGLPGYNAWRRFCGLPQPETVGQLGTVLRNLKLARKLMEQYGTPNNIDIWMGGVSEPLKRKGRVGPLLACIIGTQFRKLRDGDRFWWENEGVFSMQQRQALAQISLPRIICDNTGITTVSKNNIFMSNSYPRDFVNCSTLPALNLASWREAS
T1 sequence (P05164 165-278 limits assumed): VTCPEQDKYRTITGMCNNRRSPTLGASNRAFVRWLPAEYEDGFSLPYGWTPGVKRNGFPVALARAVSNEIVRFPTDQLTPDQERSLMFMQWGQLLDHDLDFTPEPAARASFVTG

**Q.** Which “reduction of infarct size” value (infarcted cardiac tissue) does the source give for `CC1C=CC=CC=CC=CC(O)CC=CC=CC=CC(=O)NC1` (centres unmarked) [Example 1, Cyclamenol] here?
**A.** 12.2±4.8%

**Q.** And the “reduction of infarct size (first value)” value (infarcted cardiac tissue)?
**A.** 19.0±6.0%

**Q.** And the minimal effective dose [1]?
**A.** ≥ 0.1 mg/kg

**Q.** What about the “effect on the rise in MPO activity” value [2] of the same compound?
**A.** prevents the rise in the MPO activity

**Q.** What about the inhibition at 0.1 µM ([3]; 0.1 μmol/l) of the same compound?
**A.** 12%

**Q.** What about the inhibition at 1 µM ([3]; 1 μmol/l) of the same compound?
**A.** 28%

**Q.** What about the inhibition at 10 µM ([3]; 10 μmol/l) of the same compound?
**A.** 45%

**Q.** And the inhibition at 50 µM ([3]; 50 μmol/l)?
**A.** 60%
